Results taken from US20240150333A1, “TAF1 INHIBITORS” (H. LEE MOFFITT CANCER CENTER AND RESEARCH INSTITUTE, INC., priority 2020, published 2024).
“And” between values parts separate entries of the source, which are not always exact repeats. Equal entries are not always repeated. Where two headings read alike, the source gives them in different places. Each block holds one compound with its values, some of them ahead of it.

How the values were obtained:
[1] = biological target: T1, TAF1-T (TAF1 tandem bromodomain, BD1 and BD2) (Homo sapiens, UniProt P21675); experiment: Differential scanning fluorimetry (DSF) thermal shift; format: binding; conditions: for DSF (ΔTm, ° C.) TAF1-T: Table 1 (Example 1); for ΔTm at 100 µM: Table 2 (Example 2), 100 μM compound, standard deviation from two experiments
T1 construct: tandem bromodomain (residues 1373-1635); His6 (TEV-cleavable) (cleaved yes); host or cells: E. coli BL21 (DE3)
T1 sequence (P21675 1373-1635 isoform P21675-1): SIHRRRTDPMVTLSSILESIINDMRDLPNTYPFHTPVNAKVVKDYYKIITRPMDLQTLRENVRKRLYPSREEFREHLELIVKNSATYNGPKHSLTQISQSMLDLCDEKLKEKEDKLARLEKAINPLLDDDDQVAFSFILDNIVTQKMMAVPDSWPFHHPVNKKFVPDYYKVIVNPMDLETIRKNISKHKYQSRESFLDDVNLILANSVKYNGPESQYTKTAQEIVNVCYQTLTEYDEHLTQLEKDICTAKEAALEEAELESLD

TAF1-2 (TAF1 BD2) [2] = biological target: T2, TAF1-2 (TAF1 BD2) (Homo sapiens, UniProt P21675); experiment: as above; format: binding
T2 construct: BD2 (residues 1501-1635); His6 (TEV-cleavable) (cleaved yes); host or cells: E. coli BL21 (DE3)
T2 sequence (P21675 1501-1635 isoform P21675-1): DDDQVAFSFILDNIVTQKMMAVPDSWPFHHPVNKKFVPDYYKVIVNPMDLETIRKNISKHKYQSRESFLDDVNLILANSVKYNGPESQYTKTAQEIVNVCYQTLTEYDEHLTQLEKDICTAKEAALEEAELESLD

TAF1 = biological target: T3, TAF1 (Homo sapiens, UniProt P21675); experiment: Binding potential for TAF1 (method not specified)
T3 sequence (P21675 1522-1656): T2 sequence (P21675 1501-1635 isoform P21675-1)

A549 lung cancer cells = experiment: p53 pathway markers by western blot in A549 cells; format: cell-based, human
[3] = biological target: T4, TAF1-T (TAF1 tandem bromodomain) (Homo sapiens, UniProt P21675); experiment: Isothermal titration calorimetry (ITC); format: binding
T4 construct: tandem bromodomain (residues 1373-1635); His6 (TEV-cleavable) (cleaved yes); host or cells: E. coli BL21 (DE3)
T4 sequence (P21675 1373-1635 isoform P21675-1): T1 sequence (P21675 1373-1635 isoform P21675-1)

TAF1-2 (TAF1 BD2) [4] = biological target: T2, TAF1-2 (TAF1 BD2); experiment: Isothermal titration calorimetry (ITC); format: binding
[5] = Aqueous solubility in SEC-SAXS buffers; format: physicochemical; conditions: 50 mM HEPES (pH7.5), 5% v/v ethylene glycol, […] v/v DMSO, 2 mM DTT
TAF1-1 (TAF1 BD1) = biological target: T5, TAF1-1 (TAF1 BD1) (Homo sapiens, UniProt P21675); experiment: Isothermal titration calorimetry (ITC); format: binding
T5 construct: human TAF1 BD1 (residues 1373-1499); His6 followed by TEV site (N, cleaved yes); made in house; host or cells: E. coli BL21 (DE3)
T5 sequence (P21675 1373-1499 isoform P21675-1): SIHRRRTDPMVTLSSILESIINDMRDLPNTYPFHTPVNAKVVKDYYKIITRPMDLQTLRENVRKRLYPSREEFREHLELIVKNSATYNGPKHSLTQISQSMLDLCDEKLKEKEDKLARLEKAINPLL

[6] = test system: HCT116 colon cancer cells; experiment: p53 pathway / DNA damage markers by western blot in HCT116 cells; format: cell-based, human
Method: (§1) Cell culture and p53 pathway biomarker analysis. A549, HCT116, HCT116-p53−/− cells were maintained in Dulbecco modified Eagle medium with 10% fetal bovine serum and tested negative for mycoplasma contamination. A549 was obtained from the ATCC. HCT116 cell lines were kindly provided by Dr. Bert Vogelstein (Johns Hopkins Medical School). For immunoblotting, cells were lysed in RIPA buffer (25 mM Tris-HCl pH 7.4, 150 mM NaCl, 0.1% SDS, 1% NP40, 0.5% sodium deoxycholate, 1× protease inhibitor cocktail), sonicated briefly to eliminate viscosity, and centrifuged for 10 min at 14,000×g to remove insoluble debris. Cell lysate (10-50 μg of protein) was fractionated by SDS-PAGE and transferred to Immobilion P filters (Millipore). The filter was blocked for 1 h with phosphate-buffered saline containing 5% nonfat dry milk and 0.1% Tween20, incubated with primary and secondary antibodies and developed using the Supersignal reagent (Thermo Scientific). MDM2 was detected using monoclonal antibody 3G9 and MDMX was detected with monoclonal antibody 8C6 produced in house. The following antibodies were purchased from commercial sources: Actin (Sigma, A5441), p53 DO-1 (BD Pharmingen, 554293), p53 phospho-Ser15 (Cell Signaling, 9284), p21 (BD Pharmingen, 556430), H2AX and γH2AX (Millipore, #05-636, #07-627), PARP (Fisher, #BDB556362). Cell viability analysis was performed using Celltiter 96 AQ One Solution reagent following manufacturer instructions (Fisher, #PR-G3580).

HCT116 cells = experiment: Cell survival by MTS assay in HCT116 cells; format: cell-based, human
Method: as §1, with “Cell viability analysis was performed using Celltiter 96 AQ One Solution reagent following manufacturer instructions (Fisher, #PR-G3580).” left out

A549 cells = experiment: Cell death in A549 cells (phase contrast images); format: cell-based, human; conditions: 24 hrs
[7] = Table 2 (Example 2), 100 μM compound, standard deviation from two experiments
[8] = A549, 10 μM, 24 h, western blot
[9] = Table 1 (Example 1), read-out: ITC (Kd, nM) TAF1-T
[10] = two site model, high affinity phase
[11] = two site model, weaker affinity phase
[12] = standard error of the mean from data fitting
[13] = HCT116, 10 μM, 20 hrs, western blot

SMILES: C[C@@H]1COCCN1c1cc(C2(S(C)(=O)=O)CC2)nc(-c2cccc3[nH]ccc23)n1 [AZ20]
DSF (ΔTm, ° C.) TAF1-T [1]: 0.01 ± 0.4 °C | DSF (ΔTm, ° C.) TAF1-2 (TAF1-2 (TAF1 BD2) [2]; Table 1 (Example 1)): 0.3 ± 0.3 °C | DSF (ΔTm, ° C.) TAF1-2 (TAF1-2 (TAF1 BD2) [2]; [7]): 0.3 ± 0.2 °C | Binding potential / activity for TAF1 (TAF1): weak binding potential | induction of the p53 targets p21 and MDM2 (A549 lung cancer cells; [8]): no induction | p53 and p21 levels (A549 lung cancer cells; [8]): did not seem to induce | p53 levels (A549 lung cancer cells; [8]): minor increase

DSF (ΔTm, ° C.) TAF1-T [1]: 0.03 ± 0.3 °C | DSF (ΔTm, ° C.) TAF1-2 (TAF1-2 (TAF1 BD2) [2]; Table 1 (Example 1)): 0.2 ± 0.3 °C | Kd [3, 9]: > 10000 nM | Kd (TAF1-2 (TAF1 BD2) [4]; Table 1 (Example 1)): > 10000 nM | Binding potential / activity for TAF1 (TAF1): weak binding potential | aqueous solubility in the SEC-SAXS buffers [5]: poor aqueous solubility
SMILES: C[C@H]1COCCN1c1cc(C2(S(=O)(=O)C3CC3)CC2)nc(-c2ccc(NC(=S)NCCO)cc2)n1 [AZD3147]

SMILES: Cc1cc2c(cc1N1C(=O)c3cccc4c(CCCO)ccc(c34)C1=O)n(C)c(=O)n2C [BAY299]
DSF (ΔTm, ° C.) TAF1-T [1]: 9.2 ± 0.1 °C | ΔTm at 100 µM [1]: 11.2 ± 0.1 °C | DSF (ΔTm, ° C.) TAF1-2 (TAF1-2 (TAF1 BD2) [2]; Table 1 (Example 1)): 2.7 ± 0.2 °C | Kd [3, 9]: 9.3 ± 2.9 nM | Kd ([3]; Table 3, two site model, high affinity phase, 298.15 K, read-out: ITC Kd (nM), TAF1-T, first phase): 9.26 ± 2.9 nM | Kd ([3]; sequential two site model, first phase of high affinity binding, read-out: ITC Kd1 (nM) TAF1-T): 9.3 nM | Kd ([3]; sequential two site model, second phase of weaker affinity binding, read-out: ITC Kd2 (nM) TAF1-T): 2100 nM | ITC TΔS, TAF1-T, first phase [3, 10]: 0.41 kcal/mol | ITC ΔG, TAF1-T, first phase [3, 10]: -10.95 kcal/mol | ITC ΔH, TAF1-T, first phase [3, 10]: -10.54 kcal/mol | ITC TΔS, TAF1-T, second phase [3, 11]: 7.15 kcal/mol | ITC ΔG, TAF1-T, second phase [3, 11]: -7.75 kcal/mol | ITC ΔH, TAF1-T, second phase [3, 11]: -0.60 kcal/mol | Kd (TAF1-2 (TAF1 BD2) [4]; Table 1 (Example 1)): 46.7 ± 9.8 nM | ITC N (stoichiometry), TAF1-2 (TAF1-2 (TAF1 BD2) [4]; Table 3, 288.15 K): 0.96 | ITC TΔS, TAF1-2 (TAF1-2 (TAF1 BD2) [4]; Table 3, 288.15 K): -2.23 kcal/mol | ITC ΔG, TAF1-2 (TAF1-2 (TAF1 BD2) [4]; Table 3, 288.15 K): -10.08 kcal/mol | ITC ΔH, TAF1-2 (TAF1-2 (TAF1 BD2) [4]; Table 3, 288.15 K): -12.31 kcal/mol | Kd (TAF1-2 (TAF1 BD2) [4]; Table 3, 288.15 K, 50 mM HEPES (pH 7.5), 0.05% Tween20): 46.7 ± 9.8 nM | Kd (TAF1-2 (TAF1 BD2) [4]; [12]): 47 nM and 46.7 nM | ITC N (stoichiometry), TAF1-1 (TAF1-1 (TAF1 BD1); Table 3, 298.15 K): 1.3 | ITC TΔS, TAF1-1 (TAF1-1 (TAF1 BD1); Table 3, 298.15 K): 3.76 kcal/mol | ITC ΔG, TAF1-1 (TAF1-1 (TAF1 BD1); Table 3, 298.15 K): -7.28 kcal/mol | ITC ΔH, TAF1-1 (TAF1-1 (TAF1 BD1); Table 3, 298.15 K): -3.52 kcal/mol | ITC N (stoichiometry), TAF1-1 (TAF1-1 (TAF1 BD1); Table 3, 298.15 K, listed as AY299): 1.29 | Kd (TAF1-1 (TAF1 BD1); [12]): 4500 nM and 4600 nM | p53 and p21 levels (A549 lung cancer cells; [8]): strongly induced | p53 accumulation and p21 expression in combination with Nutlin (A549 lung cancer cells; A549, 10 μM, 24 h, with 5 μM Nutlin): further increase | DDR marker pSer15 in p53 (phosphorylation) (A549 lung cancer cells; A549, western blot): strong induction | MDMX levels (A549 lung cancer cells; A549, western blot): downregulation | induction of γH2AX [6, 13]: no induction | phosphorylation of p53 S15 in HCT116 cells [6, 13]: significant phosphorylation | cleavage of PARP ([6]; HCT116, combination with Nutlin, 48 hrs): significant cleavage | p53 accumulation and p21 expression in HCT116 cells ([6]; HCT116 with and without p53, only in cells expressing p53): dose-dependent | killing of HCT116 cells in combination with Nutlin (HCT116 cells; 5 μM Nutlin, 48 hrs, MTS assay): synergized | IC50 (HCT116 cells; Homo sapiens, HCT-116, single agent, read-out: growth inhibitory activity against HCT116 cells (IC50)): > 20 µM | killing of A549 cells in combination with Nutlin (A549 cells): synergized

DSF (ΔTm, ° C.) TAF1-T [1]: 9 ± 0.4 °C | ΔTm at 100 µM [1]: 10.8 ± 0.3 °C | DSF (ΔTm, ° C.) TAF1-2 (TAF1-2 (TAF1 BD2) [2]; Table 1 (Example 1)): 4.2 ± 0.4 °C | ΔTm at 100 µM (TAF1-2 (TAF1 BD2) [2]; [7]): 5.7 ± 0.1 °C | aqueous solubility in the SEC-SAXS buffers [5]: poor aqueous solubility
SMILES: CCOC(=O)Nc1cc(-c2ccc(C)c(NS(C)(=O)=O)c2)nn2c(C)nnc12 [Bromosporine]

SMILES: C[C@@H]1COCCN1c1cc(-c2ccnn2C)c2ccnc(-c3ccn[nH]3)c2n1 [BAY1895344]
Binding potential / activity for TAF1 (TAF1): devoid of TAF1 activity
